# Reference: patent US20250387410A1, “TREATMENT OF ANTI-VEGF REFRACTORY OPHTHALMIC RETINAL EYE CONDITIONS” (Eye Co Pty Ltd., priority 2022, published 2025)
# Entries after “also recorded” stand apart in the source; their conditions may differ.
# Experiments:
# [1] = tested on: Il-1b-stimulated MIO-M1 cells; assay: Co-incubation with selective receptor antagonists in Il-1b-stimulated MIO-M1 cells; format: cell-based, human; settings: co-incubation with FA + IL-1β, compared to Il1b and FA alone
# Method: FIG. 3 Contribution of glucocorticoid and mineralocorticoid receptor signalling to the anti-inflammatory effect of FA in vitro.
# IL-1β and TNF-α were administered to MIO-M1 cells to initiate an inflammatory response in order to test the anti-inflammatory properties of the selected corticosteroids. MIO-M1 cells were grown to a cell density of 50,000 cells per well in a 24 well plate using growth media and foetal bovine serum as described (Section 2.1.1). MIO-M1 cells were challenged with either 1 ng/μl of IL-1β or TNF-α (R&D Systems, MN, USA). Experimental wells were treated with either 1 μg/μl FA, TA or Dexamethasone. Twelve hours post addition, growth medium was removed from each well and replaced with 860 μl of TRIzol (Thermo Fisher Scientific, MA, USA), agitated approximately 20 times and then placed in a clean 1.5 ml Eppendorf tube to extract ribonucleic acid (RNA).
# Following purification of RNA, cDNA was synthesized using the Bioline Tetro kit (Bioline, Australia) as per the manufacturer's instructions. Quantitative Real Time Polymerase Chain Reaction (QRT-PCR) was undertaken to profile gene expression changes in animal and cell culture samples. TaqMan hydrolysis probes (Applied Biosystems, USA) and Gene Expression Master Mix (Applied Biosystems, USA) were used. A clear 384 well plate (Applied Biosystems, USA) was used with each biological sample plated in duplicate. A reaction mixture per sample was set up and included 0.5 μl cDNA, 4 μl Rnase Free Water, 5 μl Gene Expression Master Mix and 0.5 μl Taqman Primer Probe (Thermo Fisher Scientific), as listed in Table 2.5. The amplification of each sample was undertaken using a QuantStudio 12K Flex QRT-PCR machine (Applied Biosystems, USA). GAPDH was used as the reference gene using the comparative cycle threshold (Ct) method (ΔΔCt), as it is known not to change expression following retinal photo-oxidative damage. Data was analysed using the QuantStudio 12K Flex Software (Applied Biosystems, USA).
# [2] = tested on: MIO-M1 cells; assay: MTT assay, cell viability of MIO-M1 cells; format: cell-based, human
# Source text: (§1) The immortalised retinal cells used were as follows: MIO-M1 cells (Muller cell-derived; Müller 1 Moorefields, Institute of Ophthalmology, Dr A. Limb, Institute of Ophthalmology, University College, UK); ARPE19 (RPE-derived; ATCC CRL-2302, American Tissue Culture Collection, VA, USA); and 661W cells (photoreceptor-like derived; kindly gifted by Dr Muayyad R. Al-Ubaidi, Department of Cell Biology, University of Oklahoma Health Sciences Centre, Oklahoma City, OK, USA). Cells were authenticated and validated from Cell Bank Australia.
# (§2) The immortalised retinal cell lines MIO-M1, 661W and ARPE19 were used to undertake the MTT assay to assess cell metabolic activity, based on the cell's availability of NAPDH. Treatments included exposure to one of FA (10-0.01 μg/μl, provided by Professor Ben Boyd, Monash University, Australia), TA (10-0.01 μg/p, Honeywell, USA) and Dexamethasone (10-0.0001 μg/μl, Sigma-Aldrich, MO, USA). All corticosteroids used in vitro were dissolved in 20% dimethyl sulfoxide (DMSO) (Sigma-Aldrich, MO, USA) and ultrapure endotoxin 0.1M PBS (Thermo Fisher Scientific, MA, USA). At the 12-hour time point following addition of the corticosteroid, 10p of MTT reagent (Roche, Switzerland) was added to each well. To protect against light, plates were wrapped in foil and stored in the dark at 37° C. for 4 hours at 5.0% CO2. Cells were monitored using a bright field Zeiss Axiovert 200 inverted microscope (Carl Zeiss Meditec, Dublin, CA. USA) for formation of insoluble purple formazan precipitate crystals in viable cells. Subsequently 100p of MTT solubilisation solution was added and once again incubated in darkness at 37° C., 5.0% CO2 for 24 hours. Quantification of the MTT assay was performed by measuring the absorbance at 570 nm using Tecan Infinite® 200 PRO (Tecan, Mannedorf, Switzerland).
# [3] = tested on: ARPE19 cells; assay: MTT assay, cell viability of ARPE19 cells; format: cell-based, human
# Source text: as §1, §2
# [4] = tested on: 661W cells; assay: MTT assay, cell viability of 661W cells; format: cell-based, human
# Source text: as §1, §2
# [5] = tested on: C57BL/6J mice, photo-oxidative damage (PD); assay: Photo-oxidative damage (PD) model of retinal degeneration, intravitreal injection; format: in vivo, mouse
# Source text: All experiments conducted were in accordance with the ARVO Statement for Use of Animals in Ophthalmic and Vision Research, and with approval from the ANU Animal Experimentation Ethics Committee (AEEC, protocol #A2014/56). C57BL/6J mice aged 60 post-natal days were used in this study. Animals were born, reared and held under dim light conditions (5 lux) prior to photo-oxidative damage.
# In vivo cross-sectional and fundus images of the mouse retina were acquired using Optical Coherence Tomography (OCT).
# Intravitreal injections were performed on C57BL/6J mice aged 60 post-natal days. Treatments included exposure to FA or TA dissolved in Suspension (comprised of 0.5% w/v carboxymethyl cellulose and 0.4% v/v Tween 80). The final concentration of drug in the vitreous chamber is estimated to be as 1 mg/ml.
# Age-matched C57BL/6J mice (60 post-natal days) were exposed to continuous 100K lux white LED light for 5 days with access to food and water ad libitum. During this time, 1% atropine sulphate (Minims 1% atropine sulphate eye drops; Bausch and Lomb, USA) was administered to both eyes twice daily to dilate the pupils. Animals were subsequently euthanised with carbon dioxide (CO2).
# Electroretinography (ERG) was used to assess the retinal function response of rodents to full-field flash stimuli under scotopic conditions. Dim-reared control and photo-oxidative damaged animals were used, using known methods.
# Animals were dark-adapted overnight before the commencement of ERG experiments. Animals were anaesthetised as previously described, and all retinal recordings were undertaken in a dark room with minimal red light source.
# Terminal deoxynucleotidyl transferase (Tdt) dUTP nick end labelling (TUNEL) is an established technique used to detect apoptotic and necrotic cells.
# The retina was evenly divided into 8 quadrants. Each quadrant was viewed using a confocal microscope (LSM 5, Zeiss, Germany) and TUNEL^+ and IBA1^+ cells were identified and counted. Data were graphed and analysed using Prism 6 software (GraphPad Software, CA, USA).
# [6] = 10 ug/uL, compared to DMSO-only group
# [7] = 10-0.01 μg/μl, 12 h, compared to DMSO-only group
smiles,measurement,setting,value
C[C@]12CC[C@@H]3c4ccc(O)cc4C[C@@H](CCCCCCCCC[S+]([O-])CCCC(F)(F)C(F)(F)F)[C@H]3[C@@H]1CC[C@@H]2O (some centres unmarked) [ICI182780],"effect of receptor antagonist on FA-mediated suppression of Ccl2, Il-6, and Il-8",[1],did not alter
N#Cc1ccc([C@H]2CCCC[C@H]2O)cc1C(F)(F)F [PF998425],"effect of receptor antagonist on FA-mediated suppression of Ccl2, Il-6, and Il-8",[1],did not alter
"CC#C[C@]1(O)CC[C@H]2[C@@H]3CCC4=CC(=O)CCC4=C3[C@@H](c3ccc(N(C)C)cc3)C[C@@]21C [RU486, Mifepristone]","effect of receptor antagonist on FA-mediated suppression of Ccl2, Il-6, and Il-8",[1],negated; also recorded: completely abrogate
CCC[C@@H]1CC2=CC(=O)CC[C@]2(C)[C@H]2CC[C@@]3(C)[C@@H](CC[C@@]3(O)CCC(=O)[O-])[C@H]12.[K+] [RU28318],"effect of receptor antagonist on FA-mediated suppression of Ccl2, Il-6, and Il-8",[1],did not significantly alter
"CC1(C)O[C@@H]2C[C@H]3[C@@H]4CCC5=CC(=O)C=C[C@]5(C)[C@@]4(F)[C@@H](O)C[C@]3(C)[C@]2(C(=O)CO)O1 [TA, triamcinolone acetonide]",viability of MIO-M1 cells at 1 μg/μl,[2]; 1 μg/μl,does not significantly alter cell viability
same,viability of MIO-M1 cells at the highest concentration,[2]; [6],slight reduction
same,viability of MIO-M1 cells (MTT assay),[2]; [7],do not induce toxicity; also recorded: did not have significant effect
same,viability of ARPE19 cells at 1 μg/μl,[3]; 1 μg/μl,does not significantly alter cell viability
same,viability of ARPE-19 cells (MTT assay),[3]; [7],do not induce toxicity; also recorded: did not have significant effect
same,viability of 661W cells at 1 μg/μl,[4]; 1 μg/μl,does not significantly alter cell viability
same,viability of 661W cells at the highest concentration,[4]; [6],slight reduction
same,viability of 661W cells (MTT assay),[4]; [7],do not induce toxicity; also recorded: did not have significant effect
same,a-wave and b-wave ERG responses,"[5]; 5 days PD, intravitreal, scotopic, versus controls",indistinguishable from PD controls/untreated animals
same,photoreceptor survival in PD,"[5]; intravitreal injection, mice",no significant effect
